Tested on: Circulating human tumour cells (CTC's) characterised by EpCAM
Test: in vitro vitality reduction of circulating tumour cells from a blood sample of a prostate carcinoma patient
Assay type: cell-based
Conditions: CTCs of a prostate carcinoma patient
Text: A patient, suffering from a prostate carcinoma, was examined by checking a blood sample. Circulating human tumour cells (CTC's) characterised by EpCAM and additional cell surface markers have been used. The CTC's have been tested with different anti-cancer drugs. […] Furthermore, the positive effects could be shown to be dose dependent.

C[C@H]1[C@H](OC(=O)CCC(=O)O)O[C@@H]2O[C@@]3(C)CC[C@H]4[C@H](C)CC[C@@H]1[C@@]24OO3 [Artesunat]
Concentration- and time-dependent specific in vitro vitality reduction (%) in the presence of eutherapeutic concentrations (eutherapeutic concentration, not specified): 60%

COc1cc(/C=C/C(=O)CC(=O)/C=C/c2ccc(O)c(OC)c2)ccc1O [Curcumin, curcumin]
Concentration- and time-dependent specific in vitro vitality reduction (%) in the presence of eutherapeutic concentrations (450 mg): 80%

C=C1CC[C@H](O)C/C1=C/C=C1\CCC[C@]2(C)[C@@H]([C@H](C)CCCC(C)(C)O)CC[C@@H]12 [Example 25-OH-D3, 25-OH-D3]
Concentration- and time-dependent specific in vitro vitality reduction (%) in the presence of eutherapeutic concentrations (100 ng/ml): 25% | Concentration- and time-dependent specific in vitro vitality reduction (%) in the presence of eutherapeutic concentrations (200 ng/ml): 30%

CCC(=O)C(CC(C)N(C)C)(c1ccccc1)c1ccccc1 (centres unmarked) [Methadone]
Concentration- and time-dependent specific in vitro vitality reduction (%) in the presence of eutherapeutic concentrations (3 × 15 drops): 30%

— patent publication US20240207350A1, “COMBINATION PREPARATION CONTAINING RESVERATROL” (priority 2021, published 2024)
